Here are results for 3 compounds from article PMC7830924, “Discovery of Natural Inhibitors of Cholinesterases from Hydrangea: In Vitro and In Silico Approaches” (Nutrients, 2021).

In one test the test system is T1, Chymotrypsin.
T1 construct: purchased Sigma-Aldrich
The experiment in a line: Chymotrypsin inhibition assay (enzyme selectivity). In kind it is biochemical. The following applies: mean ± SD of triplicate. On the procedure: (§1) Cholinesterases, trypsin, chymotrypsin, elastase and BACE1, assays were performed according to the previous methods. AChE, BChE, trypsin, chymotrypsin and elastase were assayed according to the manual depicted in the reference using ACh iodide, butyrylthiocholine chloride, N-benzoyl-L-Arg-pNA, N-benzoyl-L-Tyr-pNA and N-succinyl-Ala-Ala-Ala-pNA as substrates, respectively. BACE1 assay was achieved using a Rh-[…]-Quencher as a substrate. […] The inhibitory constant (Ki) was obtained by Dixon plot, and Vmax and Km were defined by Lineweaver–Burk plots. These kinetic parameters were calculated using the SigmaPlot™ (version 12.3, Systat Software, Inc., San Jose, CA, USA).

A further test has as its target T2, BChE (Homo sapiens, UniProt P06276).
T2 construct: purchased Sigma-Aldrich
In words: BChE inhibition assay and kinetic study. Format: biochemical. The following applies: for BChE Inhibition Type: determined by Dixon and Lineweaver–Burk plots; for IC50: mean ± S.D. of triplicate experiments, substrate butyrylthiocholine chloride; for Ki: obtained by Dixon plot. Here is the method:
as §1

A further test deals with T3, BACE1.
T3 construct: purchased Pan Vera
In words: BACE1 FRET assay (enzyme selectivity). In kind it is biochemical. The following applies: mean ± SD of triplicate. On the procedure: A beta-site APP cleaving enzyme 1 (BACE1) fluorescence resonance energy transfer (FRET) assay kit was purchased from Pan Vera (Madison, WI, USA).
as §1

Another test has as its system Elastase. The experiment in a line: Elastase inhibition assay (enzyme selectivity). In kind it is biochemical. The conditions noted are these: mean ± SD of triplicate. Here is the method:
as §1

The next test addresses T4, AChE (Homo sapiens, UniProt P22303).
T4 construct: purchased Sigma-Aldrich
In words: biochemical. The conditions noted are these: for AChE Inhibition Type: determined by Dixon and Lineweaver–Burk plots; for IC50: mean ± S.D. of triplicate experiments, substrate ACh iodide; for Ki: obtained by Dixon plot. On the procedure:
as §1

The test system of a further test is Trypsin. In words: Trypsin inhibition assay (enzyme selectivity). Format: biochemical. The following applies: mean ± SD of triplicate. On the procedure: as §1

T4 sequence (P22303 32-614): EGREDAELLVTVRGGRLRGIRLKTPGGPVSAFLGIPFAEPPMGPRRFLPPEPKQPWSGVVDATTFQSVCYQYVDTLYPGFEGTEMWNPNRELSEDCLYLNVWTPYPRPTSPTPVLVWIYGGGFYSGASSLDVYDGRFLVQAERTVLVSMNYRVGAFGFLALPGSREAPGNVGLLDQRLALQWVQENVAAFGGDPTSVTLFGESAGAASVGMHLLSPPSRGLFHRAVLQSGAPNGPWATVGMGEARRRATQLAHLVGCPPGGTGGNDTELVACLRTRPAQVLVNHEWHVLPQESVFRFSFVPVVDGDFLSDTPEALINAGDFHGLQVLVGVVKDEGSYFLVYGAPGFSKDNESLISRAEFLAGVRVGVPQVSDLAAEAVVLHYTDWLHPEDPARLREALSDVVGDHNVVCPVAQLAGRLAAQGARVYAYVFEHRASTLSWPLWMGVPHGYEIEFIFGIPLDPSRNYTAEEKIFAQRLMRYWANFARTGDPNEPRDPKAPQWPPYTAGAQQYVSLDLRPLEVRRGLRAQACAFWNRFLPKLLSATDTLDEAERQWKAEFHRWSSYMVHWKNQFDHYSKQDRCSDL
T2 sequence (P06276 29-602): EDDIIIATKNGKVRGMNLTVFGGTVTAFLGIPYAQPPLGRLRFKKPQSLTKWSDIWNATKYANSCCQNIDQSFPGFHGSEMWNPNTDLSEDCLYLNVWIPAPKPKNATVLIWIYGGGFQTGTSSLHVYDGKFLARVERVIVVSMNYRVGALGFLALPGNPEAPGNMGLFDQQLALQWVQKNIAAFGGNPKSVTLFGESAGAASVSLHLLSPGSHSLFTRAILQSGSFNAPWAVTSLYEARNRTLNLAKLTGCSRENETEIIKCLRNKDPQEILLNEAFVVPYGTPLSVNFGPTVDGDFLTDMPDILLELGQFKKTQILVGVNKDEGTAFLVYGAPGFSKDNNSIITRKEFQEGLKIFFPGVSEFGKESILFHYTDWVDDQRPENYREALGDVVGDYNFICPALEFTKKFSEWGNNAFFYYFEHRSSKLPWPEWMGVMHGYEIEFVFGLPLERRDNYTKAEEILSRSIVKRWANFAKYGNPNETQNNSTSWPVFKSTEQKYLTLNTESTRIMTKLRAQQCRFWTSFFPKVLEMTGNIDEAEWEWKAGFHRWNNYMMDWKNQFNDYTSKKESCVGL

In general, IC50 refers to the concentration that gives 50% inhibition. A word on the Ki: it is a measure of affinity in units of concentration, obtained from inhibition or displacement. `CC(=O)OC[C@H]1O[C@@H](Oc2cccc3c2C(=O)O[C@@H](c2ccc(OC(C)=O)cc2)C3)[C@H](OC(C)=O)[C@@H](OC(C)=O)[C@@H]1OC(C)=O` [HGP, hydrangenol 8-O-glucoside pentaacetate]: the figures for the “Inhibitory activity (%) against Chymotrypsin” value in the test with Chymotrypsin (compound 50 µM) and in the test on Chymotrypsin (compound 100 µM) were 7.16 ± 3.38% and 5.15 ± 3.70%, respectively. At BChE, the “BChE Inhibition Type” value was “Non-competitive”. The values for the IC50 against BChE and at AChE were 41 ± 3.03 µM and 22.7 ± 1.63 µM, respectively. Also, the results for the Ki on BChE and at AChE were 44.9 µM and 36.1 µM, respectively. Also, the entries for the “Inhibitory activity (%) against BACE1” value in the test with BACE1 (compound 50 µM) and with BACE1 (compound 100 µM) were 20.02 ± 0.52% and 25.21 ± 1.60%, respectively. Further, the “Inhibitory activity (%) against Elastase” value in the test with Elastase (compound 50 µM) turned out to be 3.77 ± 1.66%; with Elastase (compound 100 µM) it was 1.47 ± 1.31%. Also, at AChE, the “AChE Inhibition Type” value is “Non-competitive”. Moreover, the “Inhibitory activity (%) against Trypsin” value was determined as 1.26 ± 3.36% in the test on Trypsin (compound 50 µM) and 3.12 ± 1.69% in the test with Trypsin (compound 100 µM).
Turning to `O=C1OC(c2ccc(O)cc2)Cc2cc(O)cc(O)c21` (centres unmarked) [TC, thunberginol C], the “Inhibitory activity (%) against Chymotrypsin” value with Chymotrypsin (compound 50 µM) is 6.04 ± 2.42%; in the test on Chymotrypsin (compound 100 µM) it was 8.50 ± 1.40%. Also, the “BChE Inhibition Type” value on BChE is listed as “Non-competitive”. Further, the IC50 against BChE was determined as 42.4 ± 3.67 µM; against AChE, 42 ± 1.06 µM. Also, the Ki on BChE came to 49.2 µM; on AChE, 45.6 µM. Also, the “Inhibitory activity (%) against BACE1” value in the test with BACE1 (compound 50 µM) came to 25.81 ± 3.11%; in the test on BACE1 (compound 100 µM), 28.68 ± 1.87%. Besides, the “Inhibitory activity (%) against Elastase” value is 1.89 ± 1.09% with Elastase (compound 50 µM) and 0.42 ± 0.36% with Elastase (compound 100 µM). Also, the “AChE Inhibition Type” value on AChE is “Non-competitive”. Moreover, the “Inhibitory activity (%) against Trypsin” value with Trypsin (compound 50 µM) is −0.27 ± 1.51%; with Trypsin (compound 100 µM), 0.07 ± 2.00%.
With `COc1ccc2c3c1O[C@H]1C[C@@H](O)C=C[C@@]31CCN(C)C2` [Galantamine, reference compound], the “BChE Inhibition Type” value at BChE is on record as “Competitive”.
